Experimental data: PubChem BioAssay (NCI)
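Five concentrations, 48 hours, 96-well plates. GI50 = concentration required for 50% inhibition of growth. TGI marks complete inhibition of growth.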

Experiments:
Test in all cases: NCI anticancer screen, dose series, 48 h
OVCAR-5 ovarian = tested on: OVCAR-5 ovarian
NCI/ADR-RES ovarian = tested on: NCI/ADR-RES ovarian
CCRF-CEM leukemia = tested on: CCRF-CEM leukemia
CAKI-1 renal = tested on: CAKI-1 renal
HCC-2998 colon = tested on: HCC-2998 colon
NCI-H23 lung = tested on: NCI-H23 lung
U251 CNS = tested on: U251 CNS
OVCAR-4 ovarian = tested on: OVCAR-4 ovarian
HCT-15 colon = tested on: HCT-15 colon
HS 578T breast = tested on: HS 578T breast

Compound | TGI (OVCAR-5 ovarian) | TGI (NCI/ADR-RES ovarian) | TGI (CCRF-CEM leukemia) | TGI (CAKI-1 renal) | TGI (HCC-2998 colon) | TGI (NCI-H23 lung) | TGI (U251 CNS) | TGI (OVCAR-4 ovarian) | TGI (HCT-15 colon) | TGI (HS 578T breast) | GI50 (OVCAR-5 ovarian) | GI50 (NCI/ADR-RES ovarian) | GI50 (CCRF-CEM leukemia) | GI50 (CAKI-1 renal) | GI50 (HCC-2998 colon) | GI50 (NCI-H23 lung) | GI50 (U251 CNS) | GI50 (OVCAR-4 ovarian) | GI50 (HCT-15 colon) | GI50 (HS 578T breast)
COC1=CC(=O)c2c(O)c3c(c(O)c2C1=O)CC(C)(O)OC3 (configuration not stated) | 14.6 µM | > 25.9 µM | 17.4 µM | 16.5 µM | 13.9 µM | 8.42 µM | 10.5 µM | 4.51 µM | 9.08 µM | 35.9 µM |  |  |  |  |  |  |  |  |  | 
CC(=O)NC1=NC(=O)/C(=C/c2ccc(Cl)cc2Cl)N1C | > 100 µM | > 100 µM | 34.8 µM | > 100 µM | > 100 µM | > 100 µM | > 100 µM | > 100 µM | > 100 µM | > 100 µM |  |  |  |  |  |  |  |  |  | 
COc1ccc(CNCCN2C(=O)c3ccc4c5c(ccc(c35)C2=O)C(=O)N(CCNCc2ccc(OC)cc2)C4=O)cc1 | 1.89 µM | 1.21 µM | 3.29 µM | 3.38 µM | 1.05 µM | 0.494 µM | 0.48 µM | 0.255 µM | 0.432 µM | 4.25 µM | 0.428 µM | 0.288 µM | 0.227 µM | 1.04 µM | 0.304 µM | 0.206 µM | 0.199 µM | 0.122 µM | 0.179 µM | 1.1 µM
COc1cc(OC)cc(-c2n[nH]nc2-c2ccc3c(c2)OCO3)c1 | > 100 µM | 24 µM | > 100 µM | > 100 µM | 24.6 µM | > 100 µM | 11.2 µM | > 100 µM | > 100 µM | > 100 µM | 1.47 µM | 0.0849 µM | 0.282 µM | 0.316 µM | 2.15 µM | 0.768 µM | 0.302 µM | 0.763 µM | 0.125 µM | 0.442 µM
CC1CCC(O)/C=C/C(=O)OC(C)C(O)/C=C/C(=O)O1 (configuration not stated) | > 100 µM | > 100 µM | > 79.9 µM | > 100 µM | > 100 µM | > 100 µM | > 100 µM | > 100 µM | > 100 µM | > 100 µM |  |  |  |  |  |  |  |  |  | 
CC(C)OCC(O)COc1cc(=O)oc2ccccc12 (configuration not stated) | > 100 µM | > 100 µM | > 100 µM | > 100 µM | > 100 µM | > 100 µM | > 100 µM | > 100 µM | > 100 µM | > 100 µM |  |  |  |  |  |  |  |  |  | 
CCCCC#Cc1c(I)n(C2OC(CO[Si](C)(C)C(C)(C)C)C3OC(C)(C)OC32)c(=O)[nH]c1=O (configuration not stated) | 27.9 µM | 49.7 µM | 8.04 µM | 25.3 µM | 16.5 µM | 31.3 µM | > 100 µM | 16.1 µM | > 100 µM | 39.6 µM | 14.4 µM | 18.1 µM | 2.64 µM | 12.5 µM | 2.8 µM | 13 µM | 21.9 µM | 3.84 µM | 2 µM | 11.7 µM
COc1cc2c(cc1OC)[C@@H]1[C@H](C2=O)c2ccc([N+](=O)[O-])cc2C(=O)N1CCCBr | > 100 µM | 9.93 µM |  |  | > 100 µM | 1.8 µM | 1.39 µM | > 100 µM | 9.27 µM | 50.6 µM | 1.64 µM |  | < 0.01 µM | < 0.01 µM | 2.66 µM | < 0.01 µM | 0.134 µM | 2.4 µM | 0.369 µM | 5.45 µM
